Earlier results in the PKSmart pharmacokinetics tables (Seal et al. 2025).
Where a SMILES comes first, the peptide text is derived from it. Bridges are numbered along the chain shown (N, C = ends). [ ]: non-standard residue; d: D form. ξ: configuration not given here. ξ2Nal = NC(Cc1ccc2ccccc2c1)C(=O)O; ξW = NC(Cc1c[nH]c2ccccc12)C(=O)O; ξThr(3R) = C[C@@H](O)C(N)C(=O)O; ξY = NC(Cc1ccc(O)cc1)C(=O)O; ξK = NCCCCC(N)C(=O)O; ξV = CC(C)C(N)C(=O)O; ξC = NC(CS)C(=O)O

Assay: Lombardo, Berellini, Obach 2018, Drug Metab Dispos 46:1466, doi 10.1124/dmd.118.082966
Settings: human; for MRT / Vd / clearance / half-life: in vivo, iv; for fraction unbound: plasma

| Compound | MRT [h] | Vd [L/kg] | clearance [mL/min/kg] | half-life [h] | fraction unbound |
| --- | --- | --- | --- | --- | --- |
| CC(=O)OC1=C2C(C)[C@@H](OC(=O)C(O)C(NC(=O)c3ccccc3)c3ccccc3)C[C@@](O)([C@@H](OC(=O)c3ccccc3)[C@@H]3[C@]4(OC(C)=O)CO[C@@H]4C[C@H](O)[C@@]3(C)C1=O)C2(C)C (stereo partly specified) | 7.8 | 3 | 6.4 | 11 | 0.12 |
| O=C1NC(=O)C(c2cn3ccccc3n2)=C1C1=CN2CCN(C(=O)N3CCCCC3)C[C@@H]3C=C(F)C=C1[C@H]32 | 1.9 | 1.2 | 10.3 | 2.7 | 0.02 |
| COC1C(=O)C(C)C[C@H](C)/C=C/C=C/C=C(\C)[C@@H](OC)C[C@@H]2CC[C@@H](C)[C@@](O)(O2)C(=O)C(=O)N2CCCCC2C(=O)O[C@H]([C@H](C)C[C@@H]2CC[C@@H](OC(=O)C(C)(CO)CO)[C@H](OC)C2)CC(=O)C(C)=CC(C)[C@H]1O (stereo partly specified) | 10 | 3 | 7.7 | 18 | – |
| O=C(/C=C/c1ccc(O)c(O)c1)O[C@@H]1C[C@](OC(=O)/C=C/c2ccc(O)c(O)c2)(C(=O)O)C[C@@H](O)[C@H]1O | 1.5 | 0.79 | 8.7 | 1.37 | – |
| CCON=C(C(=O)NC1C(=O)N2C(C(=O)[O-])=C(Sc3nc(-c4cc[n+](C)cc4)cs3)CS[C@H]12)c1nsc(NP(=O)(O)O)n1 (stereo partly specified) | 0.11 | 0.53 | 83.6 | 0.09 | 0.8 |
| C=C1/C(=C\C=C2/CCC[C@]3(C)[C@@H]([C@H](C)CCCC(C)(C)O)CC[C@@H]23)C[C@@H](O)C[C@@H]1O | 13.3 | 0.25 | 0.31 | 11 | – |
| Nc1nc2c(ncn2COC(CO)CO)c(=O)[nH]1 | 3.7 | 1 | 4.6 | 3.7 | – |
| CN1CC[C@H](c2c(O)cc(O)c3c(=O)cc(-c4ccccc4Cl)oc23)[C@H](O)C1 | 4 | 1.5 | 6.1 | 5.2 | 0.06 |
| CN(C)C1CCN(C(=O)c2ccc(NC(=O)Nc3ccc(-c4nc(N5CCOCC5)nc(N5CCOCC5)n4)cc3)cc2)CC1 | 17.6 | 2.39 | 2.25 | 35.8 | – |
| Cc1ccccc1OCC(O)CNCCOc1ccc(C(N)=O)cc1 (stereo unspecified) | 4.8 | 4 | 14 | 2.5 | 0.089 |
| CN/C(=C\[N+](=O)[O-])NCCSCc1csc(CN(C)C)n1 | 1.7 | 1 | 9.8 | 1.5 | – |
| O[C@](CO[C@@H]1CN2CCC1CC2)(c1ccccc1)C1CCCC1 | 17.8 | 2.12 | 1.99 | 15.7 | – |
| O=P1(NCCCl)OCCCN1CCCl (stereo unspecified) | 9.4 | 0.62 | 1.1 | 6.6 | – |
| Cn1cc[nH]c1=S | 3.8 | 0.86 | 3.7 | 2.4 | – |
| CC(c1nc(-c2ccc(C#N)cc2)cs1)[C@@](O)(Cn1cncn1)c1cc(F)ccc1F (stereo partly specified) | 106 | 5.37 | 0.85 | 86.9 | 0.01 |
| CC(C)C1NC(=O)C(CCCCN)NC(=O)C(Cc2c[nH]c3ccccc23)NC(=O)C(Cc2ccc(O)cc2)NC(=O)C(NC(=O)C(N)Cc2ccc3ccccc3c2)CSSCC(C(=O)NC(C(N)=O)[C@@H](C)O)NC1=O (stereo partly drawn) (H-[ξ2Nal][ξC][ξY][ξW][ξK][ξV][ξC][ξThr(3R)]-NH2; disulfide 2-7) | 0.57 | 0.2 | 5.7 | 1.03 | – |

Further lines, results first:

| MRT [h] | Vd [L/kg] | clearance [mL/min/kg] | half-life [h] | fraction unbound | Compound |
| --- | --- | --- | --- | --- | --- |
| 119 | 3.61 | 0.5 | 97 | 0.01 | CC(C)C[C@H](NC(=O)CNC(=O)c1cc(Cl)ccc1Cl)B(O)O |
| 607 | 35.4 | 0.97 | 1340 | 0.01 | C=CCNc1nc(NCC=C)nc(N2CCN(C(c3ccc(F)cc3)c3ccc(F)cc3)CC2)n1 |
| 17 | 1.3 | 1.1 | 12 | 0.59 | CN(C)[C@@H]1C(O)=C(C(N)=O)C(=O)[C@@]2(O)C(O)=C3C(=O)c4c(O)ccc(Cl)c4[C@@H](O)[C@H]3C[C@@H]12 |
| 2.1 | – | – | – | – | NCCCC(O)(P(=O)(O)O)P(=O)(O)O |
| 6.34 | 7.33 | 19.3 | 4.78 | – | CN(C)CCN1C(=O)c2cccc3cc(N)cc(c23)C1=O |
| 3.04 | 2.17 | 11.9 | 5.61 | – | CCCNc1nc(NCCC)nc(N(C)OC)n1 |
| – | 0.28 | 8.1 | 3.8 | 0.0085 | COc1ccccc1Oc1c(NS(=O)(=O)c2ccc(C(C)C)cn2)nc(-c2ccnc(-c3nnn[nH]3)c2)nc1OCCO |
| 0.51 | 0.14 | 4.53 | 0.36 | – | CCCCCCCC/C=C/CCCCCCCC(=O)OC[C@H]1O[C@@H](n2ccc(N)nc2=O)[C@@H](O)[C@@H]1O |
| 1.38 | 0.66 | 7.9 | 0.98 | – | Cc1ncc(CO)c(CO)c1O |
| 1.8 | 0.14 | 1.3 | 1.6 | 0.11 | O=C1OC2(c3ccc(O)cc3Oc3cc(O)ccc32)c2ccccc21 |
